A short description of series [1]: HaCaT cell viability by CCK-8 assay. Type of series: cell-based. The following applies: human, hacat cells. On the procedure:
(1) Reagents: compound 1: a compound shown by Compound 1 in Formula (I); compound 2: a compound shown by Compound 2 in Formula (I); Dulbecco's Modified Eagle Medium (DMEM) high-glucose medium: Wuhan Pricella Biotechnology Co., Ltd.; South American fetal bovine serum (FBS) and trypsin: Gibco, USA; penicillin-streptomycin: Hyclone, USA; and CCK-8 kit: Beyotime.
(2) Instruments: CO2 incubator: HERA cell 240; and microplate reader: Thermo Fisher Scientific, USA.
The cultured HaCaT cells were counted under a microscope to be about 2×10^6 cells/mL, then inoculated in a 96-well plate at about 6×10^3 cells/well, and incubated overnight in a 37 °C and 5% CO2 incubator. After cells were adherent, a medium was removed, and 200 μL of each of complete media including compounds 1 and 2 at different concentrations (0.05 μg/mL, 0.1 μg/mL, 0.2 μg/mL, 0.5 μg/mL, 1 μg/mL, 2 μg/mL, 5 μg/mL, 10 μg/mL, and 20 μg/mL) was added to a corresponding well. The 0 μg/mL group was set as a blank control group. Three replicate wells were set for each treatment of the compounds 1 and 2. The plate was incubated in a CO2 incubator for 24 h. 20 μL of CCK-8 reagent was added to each well, and the plate was incubated in a CO2 incubator for 1 h and then placed in the microplate reader to read the absorbance at 450 nm. The test was repeated 3 times, and a mean value was taken. The measured absorbance was substituted into a cell viability calculation formula to calculate the cell viability.
The data of the present disclosure was processed with the Excel and Graphpad software. The experimental data was tested by one-way ANOVA. The post-hoc multiple comparison was conducted with the LSD. P<0.05 indicated a significant difference.
A general note: Tetrazolium dyes change colour on reduction, which living cells bring about.

The test system of series [2] is serum thymic stromal lymphopoietin (TSLP). Nature of the series: Mouse ear eczema model: serum TSLP by enzyme-linked immunosorbent assay. Type of series: in vivo, BALB/c mice. The following applies: for Serum TSLP content versus blank group: compared with the blank group; for Serum TSLP content versus model group: compared with the model group; for Reduction level of serum TSLP content versus positive group: compared with the positive group (dexamethasone acetate cream).
From the text: (1) Preparation method of a JAK-PROTAC cream: the same as in Example 1.
(2) Positive therapeutic drug: a 0.050% dexamethasone acetate cream (manufacturer: Shanghai Skin Disease Hospital).
(3) Blank matrix: a matrix component produced after the active ingredient JAK-PROTAC was removed from the cream.
(4) Molding agent: solution of calcipotriol in ethanol (manufacturer: MACKLIN).
(1) The mice were randomly divided into a blank control group (6 mice) (Control), a model group (6 mice) (Model), a positive drug group (6 mice) (Positive), a Compound 1-treating group (0.15% JAK-PROTAC cream 1 for external use) (6 mice) (Treat 1), and a Compound 2-treating group (0.15% JAK-PROTAC cream 2 for external use) (6 mice) (Treat 2).
(2) Molding was conducted in the following manner:
(§1) A. On day 0 to day 7 of the modeling: At 9 a.m., the blank control group was administered with the cream matrix, the model group was administered with the molding agent, the positive group was administered with the molding agent, the Compound 1-treating group was administered with the molding agent, and the Compound 2-treating group was administered with the molding agent. At 5 p.m., the blank control group was not treated, the model group was administered with the cream matrix, the positive group was administered with the dexamethasone acetate cream, the Compound 1-treating group was administered with the JAK-PROTAC cream 1, and the Compound 2-treating group was administered with the JAK-PROTAC cream 2.
as §1, with “B.” for “A.”, “8” for “0”, “10” for “7”, “modeling, at” for “modeling: At”, “not treated,” for “administered with the molding agent,”, “not treated.” for “administered with the molding agent.”
C. On day 11 of the modeling: At 9 a.m., the blank control group was administered with the cream matrix, the model group was not treated, the positive group was not treated, the Compound 1-treating group was not treated, and the Compound 2-treating group was not treated. At 1 p.m., the mice were sacrificed through cervical dislocation, and the spleen and two ears of each mouse were collected.
(4) The TSLP content in serum was detected by enzyme-linked immunosorbent assay.
The data of the present disclosure was processed with the Excel and GraphPad software. The experimental data was tested by one-way ANOVA. The post-hoc multiple comparison was conducted with the least significant difference (LSD). P<0.05 indicated a significant difference.

The source of these data is patent publication US20260365655A1, “NEW USE OF JANUS KINASE (JAK)-DEGRADING AGENT BASED ON PROTEOLYSIS TARGETING CHIMERA (PROTAC)” (SHANGHAI SKIN DISEASE HOSPITAL, priority 2022, published 2026).

With `N#CC[C@H](C1CCCC1)n1cc(-c2nc(Nc3ccc(C(=O)NCCCCNc4cccc5c4C(=O)N(C4CCC(=O)NC4=O)C5=O)cc3)nc3[nH]ccc23)cn1` (stereo partly drawn) [Compound 1], the viability (as a rule, a read-out of living cells in per cent, often relative to untreated cells) at 24 h is 80.5% in series [1] (0.05 μg/mL); 85.7% in series [1] (0.10 μg/mL); 90.7% in series [1] (0.20 μg/mL); 98.3% in series [1] (0.50 μg/mL); 98.3% in series [1] (1.00 μg/mL); 93.8% in series [1] (2.00 μg/mL). Besides, the viability at 24 h in series [1] (5.00 μg/mL) was 108%; in series [1] (10.00 μg/mL), 110%; in series [1] (20.00 μg/mL) it was 80.3%. The “Serum TSLP content versus blank group” value in series [2] is “increased compared with the blank group (P<0.01)”. In series [2], the “Serum TSLP content versus model group” value is “significantly reduced compared with the model group (P<0.01)”. For the same molecule, in series [2], the “Reduction level of serum TSLP content versus positive group” value is recorded as “greater than a reduction level of a TSLP content in the positive group (P<0.01)”.
As to `CCS(=O)(=O)N1CC(CC#N)(n2cc(-c3nc(Nc4ccc(C(=O)NCCCCNc5cccc6c5C(=O)N(C5CCC(=O)NC5=O)C6=O)cc4)nc4[nH]ccc34)cn2)C1` (stereo not drawn) [Compound 2], the viability at 24 h in series [1] (0.05 μg/mL) amounted to 95.5%; in series [1] (0.10 μg/mL), 95.6%; in series [1] (0.20 μg/mL) it was 106%; in series [1] (0.50 μg/mL), 113%; in series [1] (1.00 μg/mL), 101%; in series [1] (2.00 μg/mL), 107%. Besides, the viability at 24 h came out at 124% in series [1] (5.00 μg/mL), 120% in series [1] (10.00 μg/mL) and 93.3% in series [1] (20.00 μg/mL). The “Serum TSLP content versus blank group” value in series [2] is “increased compared with the blank group (P<0.01)”. Moreover, in series [2], the “Serum TSLP content versus model group” value is recorded as “significantly reduced compared with the model group (P<0.01)”. In addition, in series [2], the “Reduction level of serum TSLP content versus positive group” value was “greater than a reduction level of a TSLP content in the positive group (P<0.01)”.
